{
  "source": "patent US9556113B2",
  "about": "“Combination uses of dichloroacetate and oxamate, and their prodrugs, for cancer treatment” (The South Dakota Board of Regents, priority 2014, dated 2017)",
  "key": {"[1]": {"test_system": "HPV+ HNSCC tumor", "experiment": "IHC of tumors for cleaved caspase 3 and Ki67", "format": "in vivo, wild-type mice", "conditions": "one week treatment plus one round of CRT", "source_text": "FIG. 10 illustrates Effect of AT-N4-002 on tumor cell apoptosis and cell proliferation. (A) Sections of tumors from mice treated either with chemo-radiation (Tx) or chemoradiation plus AT-N4-002 were subjected to IHC to detect cleaved caspase 3 or Ki67. (B) Cleaved caspase 3 positive cells were counted in 5 random fields from the IHC experiment shown in A. (C) The percent of Ki67 positive cells from the IHC experiment shown in A.\nTo examine potential direct, immune-independent effects of the prodrug on tumors, tumor bearing wild-type mice were treated for one week with AT-N4-002 plus one round of chemoradiation. Tumors were then harvested and processed for immunohistochemical detection of Ki67, a proliferation marker, and cleaved caspase 3, a marker for apoptosis (FIG. 10). […] Such direct effects on the tumor cells could be responsible for the reduced tumor growth observed in immune deficient mice."}, "[2]": {"test_system": "E6E7/Ras cells", "experiment": "Extracellular acidification rate (ECAR), Seahorse XF24", "format": "cell-based, mouse", "conditions": "added at point B with additional glucose", "description": "FIG. 6 illustrates the reduction of extracellular acidification rate (ECAR) by prodrugs AT-N4-001 and AT-N4-002. (A) ECAR was measured using a Seahorse XF24 instrument. At time point A glucose was added to the cultures. At time point B the indicated drugs were added with additional glucose. At time point C 2-deoxyglucose was added to block glycolysis. (B) Bar graph of ECAR at the time point indicated as Rate 8 in A.\nAT-N4-001 and AT-N4-002 should each release two molecules of DCA and one molecule of oxamate. Both DCA and oxamate are expected to reduce cellular lactate production. Therefore, we examined the changes in lactate after treatment of E6E7/Ras cells with the prodrugs. E6E7/Ras cells were seeded into 100 mm dishes and the next day treated with 5 mM AT-N4-001, 5 mM AT-N4-002, 5 mM DCA plus 5 mM oxamate, or 5 mM DCA alone. Culture medium was collected after 4 hours of treatment and lactate levels were determined (FIG. 5). […] To confirm the effects of these compounds on lactate production, the extra cellular acidification rate (ECAR) was measured using a Seahorse XF24 Extracellular Flux analyzer. Since lactate is transported from cells together with a proton, acidification of the culture medium (ECAR) is an estimate of lactate production and the glycolytic rate of cells. In the experiment shown in FIG. 6A, ECAR measurements were initiated in the absence of glucose. […]"}, "[3]": {"test_system": "HPV+ HNSCC tumor", "experiment": "Intratumoral pH and tumor lactate", "format": "in vivo, wild-type mice", "description": "FIG. 11 illustrates the effect of prodrug on tumor pH and tumor lactate. (A) Intratumoral pH in living animals was determined by inserting a needle pH electrode directly into the tumor. The pH was read at 3 different depths in each tumor. Each marker on the graph represents a separate pH measurement. The bar represents the mean and the error bars the standard deviation. (B) Frozen sections of excised tumors were used to estimate lactate levels in the tumor microenvironment. This was performed using the In Vivo Xtreme imager to visualize lactate-dependent luciferase activity as described by Broggini-Tenzer et al. [Metabolism of tumors under treatment: mapping of metabolites with quantitative bioluminescence. Radiother Oncol 99, 398-403 (2011)]. (C) Plot of lactate measurements in B. Each marker represents one tumor. The bar represents the mean and the error bars the standard deviation.\nThe ability of DCA and oxamate to enhance survival in wild-type mice following chemoradiation correlates closely with their ability to reduce tumor lactate. We therefore examined the ability of the prodrug AT-N4-002 to reduce tumor lactate. Wild-type tumor bearing mice were treated with either CRT or CRT followed by one week of daily ip injection of AT-N4-002. Lactate is exported from cells together with a proton and therefore promotes acidification of the tumor microenvironment. Intratumoral pH was measured with a needle pH electrode. […] (FIG. 11B,C)."}, "[4]": {"test_system": "HPV+ HNSCC tumor", "experiment": "Tumor growth and survival with chemoradiation in RAG-1 immune-deficient mice", "format": "in vivo, RAG-1 mice", "conditions": "in combination with chemoradiation", "description": "FIG. 9 illustrates the effect of AT-N4-002 prodrug on tumor growth (A) and animal survival (B) in RAG-1 immune-deficient mice. Treatment conditions are the same as those described in FIG. 7.\nTo examine whether the prodrug AT-N4-002 also requires an immune response to control tumor growth, experiments were performed in RAG-1 mice. Based on our previous experience with DCA, we hypothesized that survival and tumor clearance would not be observed in these immune deficient mice following treatment with AT-N4-002. […] These immune-independent effects of AT-N4-002 on tumor growth in immune-deficient mice could be due to direct effects on tumor cell growth or cell death as described in Example 9, below."}, "[5]": {"conditions": "CRT followed by one week of daily ip injection"}},
  "data": [
    {"molecule": "NC(=O)C(=O)OCC(COC(=O)C(Cl)Cl)OC(=O)C(Cl)Cl", "note": "(centres unmarked) [AT-N4-002, 3-(2-amino-2-oxoacetoxy)propane-1,2-diyl bis(2,2-dichloroacetate)]", "values": [
      {"measurement": "Ki67 positive cells in tumor (FIG. 10C)", "setting": "[1]", "result": "appeared to decrease"},
      {"measurement": "cleaved caspase 3 positive cells in tumor compared to CRT alone (FIG. 10B)", "setting": "[1]", "result": "significantly increased"},
      {"measurement": "increase in ECAR after glucose addition (FIG. 6)", "setting": "[2]", "result": "completely blocked"},
      {"measurement": "intratumoral pH compared to CRT group (FIG. 11A)", "setting": "[3]; [5]", "result": "significantly higher"},
      {"measurement": "tumor lactate (FIG. 11B,C)", "setting": "[3]; [5]", "result": "decreased tumor lactate"},
      {"measurement": "lactate production and acidity in tumor tissues versus DCA plus oxamate", "setting": "[3]; separate in vivo experiment, data not shown", "result": "more effective in reducing lactate production and acidity in tumor tissues than DCA plus oxamate"},
      {"measurement": "survival in RAG-1 mice (FIG. 9B)", "setting": "[4]", "result": "lengthened survival"},
      {"measurement": "tumor growth in RAG-1 mice (FIG. 9A)", "setting": "[4]", "result": "slowed tumor growth"}
    ]}
  ]
}
